27 molecules from ChEMBL document CHEMBL1201862, “PubChem BioAssay data set” (2004) can be followed below.

Structures are written as SMILES.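 Values below derive from 48-hour exposures of cells grown in 96-well plates, with endpoints linearly interpolated between the two concentrations bracketing the appropriate inhibition level. Abbreviation: GI50, concentration required for 50% inhibition of growth.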 Activity calls are given as the source filed them. Rule as the data show it: active = GI50 up to about 1.1 µM and inactive = higher.

Test systems include MDA-N; NCI/ADR-RES; SNB-78; HOP-18; LXFL 529; DMS-273; M19-MEL; XF498.
Holding throughout (assay): inhibition of tumour cell growth, NCI panel, 48 h

For the molecule `O=C(Nc1cccc2ccccc12)c1ccccc1`, the GI50 with MDA-N is 77.6 µM (inactive); with NCI/ADR-RES, > 100 µM (inactive).

For the molecule `Cc1cc(O)c(-c2cc(O)c(C)cc2O)cc1O`, the GI50 in the test on MDA-N was 8.34 µM (inactive); with NCI/ADR-RES, 26.4 µM (inactive).

Regarding `Clc1c2nc3ccccc3c-2[nH]c2ccccc12`, the GI50 in the test on MDA-N is 3.57 µM (inactive); in the test with NCI/ADR-RES, 23.4 µM (inactive).

On to `COC(=O)c1c(C)c2c(c(C)c1O)OC(=O)c1c(C)cc(O)c(C=O)c1O2`, for which the GI50 in the test with MDA-N and in the test on NCI/ADR-RES was > 100 µM (inactive) in each case.

For the molecule `Cc1cc(O)cc2c1O[C@@]1(C)CCC3[C@@]4(C)CC[C@H](O)C(C)(C)C4CC[C@@]3(C)[C@H]1C2` (some centres not stated), the GI50 with SNB-78 is 5.98 µM (inactive); with HOP-18 it was 14.7 µM (inactive); with LXFL 529, 2.85 µM (inactive); in the test on DMS-273, 4.05 µM (inactive); in the test with M19-MEL, 11 µM (inactive).

Take `CC(=O)Nc1ccc(-c2nnc(SCC(=O)Nc3cccc(Cl)c3)o2)cc1`: the GI50 in the test on SNB-78 is > 100 µM (inactive); with HOP-18, 12.6 µM (inactive); in the test on LXFL 529 it was 10.9 µM (inactive); in the test on DMS-273, 17.9 µM (inactive); in the test on M19-MEL, 17.3 µM (inactive).

Take `O=C(CCC(=O)CC(O)(C(F)(F)F)C(F)(F)F)CC(O)(C(F)(F)F)C(F)(F)F`: the GI50 in the test with NCI/ADR-RES is 61.7 µM (inactive).

Consider `OCC(O)C1OC2CC1Nc1ccccc1N2` (configuration not stated), for which the GI50 in the test on NCI/ADR-RES is > 100 µM (inactive).

Turning to `CN1CCN(C2CC(=O)c3c(Cl)sc(Cl)c32)CC1` (configuration not stated), the GI50 is 9.02 µM (inactive) in the test with MDA-N and 16.4 µM (inactive) with NCI/ADR-RES.

`O=C1Nc2cccc(Cl)c2/C1=C\c1c(Cl)nc2sccn12`: the GI50 with MDA-N is > 100 µM (inactive); in the test on NCI/ADR-RES it was 55.1 µM (inactive).

Consider `CCN(CC)CCn1nc(N)c2nc3cc(Cl)ccc3nc21`, for which the GI50 in the test with MDA-N is 86.5 µM (inactive); with NCI/ADR-RES it was 35.3 µM (inactive).

As to `O=C1C=CC(=O)c2c1ccc1c3ccccc3n(Cc3ccc([N+](=O)[O-])cc3)c21`, the GI50 in the test with MDA-N and in the test with NCI/ADR-RES was > 100 µM (inactive) in each case.

Take `Cc1ccc(Cc2n[nH]c(=O)n2Nc2ccccc2)cc1`: the GI50 in the test with MDA-N and in the test on NCI/ADR-RES was > 100 µM (inactive) in each case.

Regarding `COC(=O)CC1C(=O)OCc2c1cc1n(c2=O)Cc2c-1nc1ccccc1c2OC` (configuration not stated), the GI50 is 64.7 µM (inactive) in the test with HOP-18; > 100 µM (inactive) in the test with LXFL 529; 12.7 µM (inactive) with DMS-273; 69.7 µM (inactive) in the test on M19-MEL; > 100 µM (inactive) with XF498.

As to `CN(C)C(=S)/N=c1\ss/c(=N\C(=S)N(C)C)n1Cc1ccco1`, the GI50 with SNB-78, in the test on HOP-18, with LXFL 529, in the test on DMS-273 and in the test on M19-MEL was > 100 µM (inactive) in each case.

As to `O=C1[C@@H]2C3C=CC([C@H]4C(=O)N(CO)C(=O)[C@@H]34)[C@@H]2C(=O)N1CO`, the GI50 with SNB-78 is > 100 µM (inactive); in the test with HOP-18, 34 µM (inactive); with LXFL 529, 79.1 µM (inactive); in the test with DMS-273, > 42.7 µM (inactive); in the test with M19-MEL, > 44.9 µM (inactive); in the test with XF498, > 100 µM (inactive).

Consider `CCOP(=O)(OCC)c1ccc(=O)[nH]c1-c1cccs1`, for which the GI50 in the test on MDA-N and in the test with NCI/ADR-RES was > 100 µM (inactive) each time.

For the molecule `NCCCc1ccc2oc3ccccc3c2c1`, the GI50 was 15.6 µM (inactive) with MDA-N and 22.3 µM (inactive) in the test on NCI/ADR-RES.

Consider `COc1cc(C2SC(=N)Nc3c2c(C)nn3C(=O)c2ccc(Cl)cc2)ccc1O` (configuration not stated), for which the results for the GI50 in the test on MDA-N and in the test on NCI/ADR-RES were 0.236 µM (active) and > 10 µM (inactive), respectively.

On to `CC(C)(C)c1cc(OCc2nnc3sc(S)nn23)c(Cl)cc1OCc1nnc2sc(S)nn12`, for which the GI50 in the test on MDA-N was 18.9 µM (inactive); in the test on NCI/ADR-RES, 78.5 µM (inactive).

`Cc1ccc(C2NC(=N)NC3=C2CCOc2c3ccc3ccccc23)cc1` (configuration not stated): the GI50 in the test on NCI/ADR-RES is 15.1 µM (inactive).

In the case of `CC(=O)Oc1ccc2cc(Oc3ccccc3)c(=O)oc2c1`, the GI50 in the test on MDA-N is > 100 µM (inactive).

As for `CCc1ccc2c(c1)/C(=C1/Nc3ccccc3/C1=N/O)C(=O)N2`, the GI50 in the test on MDA-N is 7.53 µM (inactive); in the test on NCI/ADR-RES it was 6.84 µM (inactive).

In the case of `CCOC(=O)C1C(c2ccccc2)C2(C#N)C(=N)OC1(C)C2(C#N)C#N` (configuration not stated), the figures for the GI50 with MDA-N and in the test with NCI/ADR-RES were 14.7 µM (inactive) and 27.1 µM (inactive), respectively.

On to `CN(C)C1(N(C)C)Oc2c(c(=O)n(C)c(=O)n2C)C(c2ccc(Br)cc2)C1(F)F` (configuration not stated), for which the GI50 with NCI/ADR-RES is > 100 µM (inactive).

As to `Cn1nc2ccc3nccc(N4CCN(CCO)CC4)c3c2n1`, the GI50 in the test with MDA-N is > 100 µM (inactive).

With `CCOC1=C2N=C(C(CC)c3ccc(F)cc3)N=C2C(=O)c2ccccc21` (configuration not stated), the GI50 in the test on SNB-78 is 27.8 µM (inactive); with LXFL 529 it was 23.9 µM (inactive); in the test on DMS-273 it was 25.6 µM (inactive); with M19-MEL, 24 µM (inactive); in the test with XF498, 17.5 µM (inactive).
